Measurements: patent US8318809B2, “Compositions and methods for treating jellyfish stings” (priority 2006, dated 2012)
Counter-ions that a name gives are not always drawn.

What was measured:
[1] = system: sea nettle (hrysaora quinquecirrha) stings; assay: Jellyfish sting test on inner forearm of human test subjects, sea nettle; format: in vivo
Source text: Two genera of jellyfish were used in examples 2-19 described below: Chiropsalmus quadumanus, a cubomedusa and member of the Scyphozoa, also known as the sea wasp; and another scyphozoan jellyfish, hrysaora quinquecirrha, commonly called the sea nettle. These are the two most common types of stinging jellies that occur with frequency and/or regularity in normal swimming waters on the USA east coast north of Cape Canaveral.
(§1) Living healthy specimens were captured locally using trawls and dip-nets. They were maintained in flowing seawater aquariums (ca. 500 liters) for days-weeks; sea nettles maintained for long periods were fed live minnows (mummichugs).
For examples 3-19, with the exception of the commercially available spray products and the meat tenderizer paste solution, all of the other test solutions were in liquid form and were applied using a one milliliter pipetter and sterile tips.
For examples 3-19 below, the following general procedures were followed. Healthy, actively swimming jellyfish were used in all examples, and the same procedure was applied in all cases. The same human test subjects were used in all experiments, in order to have continuity and be able to qualitatively compare treatment effects among experimental dates.
(§2) Stings from sea wasps were induced by manually holding a live specimen by its bell, and dragging the tentacles across the inner forearm of the test subject. Sea-wasps caused immediate stinging sensations. Stings from the larger sea nettles were induced using tweezers to manually remove tentacles from living specimens and dragging them across the inner lower forearms of test subjects. Sea-nettle stings were of the same or somewhat more intensity as those of sea wasps, but were not felt until about 15 s after contact, perhaps because the tentacles have visibly thicker gelatinous coatings.
Products were applied to sting sites within 1-2 minutes unless otherwise noted below. […] Thus one forearm was used for each treatment effect, and each forearm included two sting sites: one received a treatment while the other served as an untreated control. […]

jellyfish stings [2] = assay: Jellyfish sting test, jellyfish species not stated; format: in vivo, human; conditions: Example 20; 4% lidocaine hydrochloride in water
Source text: […] Healthy, actively swimming jellyfish were used in all examples, and the same procedure was applied in all cases. The same human test subjects were used in all experiments, in order to have continuity and be able to qualitatively compare treatment effects among experimental dates.
as §2
(§3) Products were applied to sting sites within 1-2 minutes unless otherwise noted below. […] Thus one forearm was used for each treatment effect, and each forearm included two sting sites: one received a treatment while the other served as an untreated control. Tests were either conducted simultaneously in duplicate using two subjects, or sequentially several hours apart using the same subject.

[3] = system: sea wasp (Chiropsalmus quadumanus) stings; assay: Jellyfish sting test on inner forearm of human test subjects, sea wasp; format: in vivo; conditions: for maintenance of relief: 5% lidocaine in 80:20 water:propylene glycol, 5% benzocaine in 90:10 propylene glycol:acetone, control sites decreased after 2-3 h; for red rash at sting site: 5% lidocaine or 5% benzocaine formulations vs other treatments; for time to sting relief: 10% lidocaine in 50:50 water:propylene glycol, 10% benzocaine in 90:10 propylene glycol:acetone
Source text: These are the two most common types of stinging jellies that occur with frequency and/or regularity in normal swimming waters on the USA east coast north of Cape Canaveral.
as §1
Healthy, actively swimming jellyfish were used in all examples, and the same procedure was applied in all cases.
Stings from sea wasps were induced by manually holding a live specimen by its bell, and dragging the tentacles across the inner forearm of the test subject. […] Stings from the larger sea nettles were induced using tweezers to manually remove tentacles from living specimens and dragging them across the inner lower forearms of test subjects.
as §3

tongue = assay: Minimum response time to topically applied anesthetic on the tongue; format: in vivo, human; conditions: Example 5; 5 mg of pure compound applied to the tongue
Experimental: Two formulations were tested in the present example to test the minimum response time of the human body to topically applied lidocaine and benzocaine:
5 mg of pure benzocaine applied to the tongue

Solubility in water = format: physicochemical; conditions: Example 13 remark
[4] = stated as known; cited from earlier work
jellyfish stings [5] = assay: Beach surveys of beachgoers stung by a jellyfish; format: in vivo, human
Experimental: The beach surveys were conducted on beachgoers that stated they had been stung by a jellyfish. All participants voluntarily filled out an 8 question survey.
Locations: Tybee Island, Ga., Saint Simons Island, Ga., Hilton Head, S.C., Jacksonville beach, Fla., Daytona beach, Fla.
Time to application: Varied based on the person surveyed. Average times from sting to treatment ranged from 5 to 15 minutes.
Application to relief: Most respondents noted that they began to feel relief at the 1 minute mark. Based on an average level of affected area (less than 10% body coverage) the respondents noted virtually all the pain subsided by the 5 minute mark. (Most of the respondents who noted “some relief” departed within 2 minutes, which is the approximately time it took them to fill out the survey. Some of these respondents later returned to report total relief, but this is not shown in the data below). The results are presented in Table 3 and FIG. 2, below (total respondents: 232).

chigger bites = assay: Chigger bite treatment, one subject; format: in vivo, human; conditions: Example 22; two bites per treatment; lidocaine as 4% solution in water
Source text: Subject received 6 chigger bites on inner thigh area. Subject applied the formulation to two of the chigger bites, treated two others with Chigger Rid®, a drug store product, and applied clear finger nail polish, a home remedy, to the final two bites.

fire ant bites = assay: Fire ant bite treatment, one subject; format: in vivo, human; conditions: Example 23
Experimental: The subject for this example had substantial experience with fire ant bites, with general symptoms of blistering, itching, pain associated with the bites. […] Subject received 7 fire ant bites while gardening outside. Subject applied the formulation to the seven bites approximately 15 minutes after the bites occurred.

[6] = system: nematocysts of sea nettle tentacles; assay: Microscopy observations of nematocyst responses to product exposure; conditions: Example 11; pipetted onto tentacles in seawater, viewed at 60×; lidocaine as 10% solution in seawater
Source text: Tentacles were removed using tweezers from an actively swimming sea nettle, placed in a glass Petri dish in seawater collected from the jellyfish tank (same salinity), and viewed at 60× under a zoom stereomicroscope while various liquid chemicals were pipetted directly onto the tentacles.

[7] = 4% Lidocaine and water, pump or trigger spray, total respondents 232

NC(N)=O [urea]
effect on the soothing effect of lidocaine ([1]; Example 12, 10% urea added to 10% lidocaine in water): did not appear to help or impede

CCN(CC)CC(=O)Nc1c(C)cccc1C [lidocaine hydrochloride]
time to initial pain relief after application (jellyfish stings [2]): around one

CCOC(=O)c1ccc(N)cc1 [benzocaine]
maintenance of relief ([3]; Example 3): maintained until the stinging sensation eventually decreased in control sites
red rash at sting site ([3]; Example 3, sea wasps 2″ bell): substantially reduced
time to sting relief ([3]; Example 4, sea wasp 3″ bell): 60 to 90 s
onset of localized numbness (tongue): 30 s
dissolves in water (Solubility in water): does not dissolve in water
solubility in water [4]: sparingly soluble in water

N [Ammonia]
treatment effect on sting pain ([3]; Example 3, sea wasps 2″ bell, meat tenderizer paste, ammonia and vinegar store-bought full strength, vs untreated control site): increased the initial pain

CCN(CC)CC(=O)Nc1c(C)cccc1C [lidocaine]
maintenance of relief ([3]; Example 3): maintained until the stinging sensation eventually decreased in control sites
red rash at sting site ([3]; Example 3, sea wasps 2″ bell): substantially reduced
redness at the sting site ([3]; Example 4, 10% lidocaine formulation compared with 10% benzocaine formulation): appeared to reduce redness at the sting site more than the benzocaine formulation
time to sting relief ([3]; Example 4, sea wasp 3″ bell): 30 to 60 s
rash ([3]; Example 6, 10% compared to 5% lidocaine in 80:20 water:propylene glycol): somewhat less pronounced
pain relief ([3]; Example 6, both 5% and 10% lidocaine in 80:20 water:propylene glycol, sea wasp 3″ bell, compared to no treatment): substantial pain relief
time to substantial relief ([3]; Example 7, 10% lidocaine in 80:20 water:propylene glycol without acetic acid, sea wasps 2″ bell, untreated stinging lasted about 30 minutes): about 1 minute
relief after delayed application ([3]; Example 8, 10% lidocaine in 80:20 water:propylene glycol applied 5 min after sting): provided relief as though applied immediately
time to relief ([3]; Example 8, 10% lidocaine in 80:20 water:propylene glycol applied immediately, sea wasp 2″ bell): approximately 1 minute
performance as judged by the test subjects ([1]; Example 9, 10% lidocaine in water only compared with 10% lidocaine in 80:20 water:propylene glycol, sea nettle 6″ bell): slightly superior
acted faster by ([1]; Example 16, 15% lidocaine in water compared with 10% lidocaine in water, sea nettle 4″ bell): 10 to 15 s
onset of localized numbness (tongue): 30 s
time at which most respondents began to feel relief (jellyfish stings [5]; 4% Lidocaine and water spray, 5 to 15 minutes from sting to treatment): 1 min
time by which virtually all the pain subsided (jellyfish stings [5]; 4% Lidocaine and water spray, affected area less than 10% body coverage): ≤ 5 min
number of respondents: Much relief (jellyfish stings [5]; [7]): 128
number of respondents: No relief (jellyfish stings [5]; [7]): 0
number of respondents: Some relief (jellyfish stings [5]; [7]): 32
number of respondents: Total relief (jellyfish stings [5]; [7]): 72
itching of chigger bites after treatment (chigger bites): ceased itching within minutes of application with no further symptoms
blister formation (fire ant bites; 4% lidocaine and water applied approximately 15 minutes after the bites): typical blisters did not form
relief from pain and itching (fire ant bites; 4% lidocaine and water applied to 7 bites approximately 15 minutes after the bites): complete relief from pain and itching
nematocyst firing [6]: did not cause nematocysts from a new tentacle to fire
